# Measured values taken from patent US4430345A, “Prostaglandins” (National Research Development Corporation, priority 1979, dated 1984).
# Columns and labels:
# [1] = molecular target: T1, human platelets (thromboxane receptor sites) (Homo sapiens, UniProt P21731); experiment: Human platelet system: antagonism of aggregation by 11,9-(epoxymethano) PGH2; format: cell-based; details: for Kb: against 11,9-epoxymethano analogue of PGH2, compound added 5 minutes previously, Gaddum-Schild Equation, read-out: AFFINITY CONSTANTS (KB), Human Platelets (converted)
# T1 construct: Platelet-rich plasma is obtained from fresh, citrated human blood; endogenous in cells; host or cells: human platelets (platelet-rich plasma from fresh, citrated human blood)
# T1 sequence (P21731 1-343): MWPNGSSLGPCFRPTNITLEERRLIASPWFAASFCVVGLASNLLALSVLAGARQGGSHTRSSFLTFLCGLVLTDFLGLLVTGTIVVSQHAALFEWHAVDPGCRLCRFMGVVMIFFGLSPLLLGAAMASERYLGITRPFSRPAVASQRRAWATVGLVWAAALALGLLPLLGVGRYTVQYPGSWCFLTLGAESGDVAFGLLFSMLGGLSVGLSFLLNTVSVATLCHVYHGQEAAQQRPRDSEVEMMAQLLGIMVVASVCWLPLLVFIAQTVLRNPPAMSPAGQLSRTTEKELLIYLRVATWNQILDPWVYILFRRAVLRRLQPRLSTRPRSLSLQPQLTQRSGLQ
# Protocol: Platelet-rich plasma is obtained from fresh, citrated human blood. Addition of the 11,9-epoxymethano analogue of PGH2 (1×10^-7 M to 5×10^-7 M) causes immediate aggregation recorded as an increase in light transmission (600 nm). In a second experiment the individual compounds are added 5 minutes previously to addition of the PGH2 analogue. The dose of the PGH2 analogue added is then increased to a level which gives a similar response to that obtained in the absence of antagonist. The affinity constant, KB, for the compound is calculated according to the Gaddum-Schild Equation (based on Law of Mass Action).
# [B]=molar concentration of compound
# (§1) Results typical of those obtained for the various compounds (all of which are of the formula shown at the beginning of Example 4 except where otherwise indicated) are shown in Table 3.
# [2] = tested on: rabbit aorta (thromboxane receptor sites); experiment: Rabbit aorta system: antagonism of contraction by 11,9-(epoxymethano) PGH2; format: cell-based; design: key to Rabbit Aorta, affinity constant not given: (2): Partial agonist; details: for Rabbit Aorta, affinity constant not given / Kb: against 11,9-(epoxymethano) PGH2, compound added 30 minutes previously; for Kb: Oryctolagus cuniculus, 0.5 h, Gaddum-Schild Equation, read-out: AFFINITY CONSTANTS, Rabbit Aorta (converted)
# Source text: It is believed that such inhibition is the result of the compounds being thromboxane antagonists and the activity of the compounds is for convenience hereinafter discussed in these terms. […] Structural features which tend to endow a compound with a more pure antagonist form of activity are (a) the absence of a halogen substituent, particularly at the para position, in the benzene ring of a phenoxyethyl O-substituted oxime; (b) the absence of a halogen substituent at the meta position of a benzyl O-substituted oxime; and (c) the presence of two benzene rings in the oxime substituent,these rings being located, for example, on a carbon atom joined directly to the oxygen atom of the oxime group. Some activity has also been alserved in compounds according to the present invention on guinea pig tracheal muscle.
# Spiral strips of thoracic aorta are suspended in Kreb's-Henseleit solution and aerated with 95% O2 /5% CO2 at 37° C. Tension changes are recorded with a Grass FTO3 force transducer. Initially, cumulative dose response curves to 11,9-(epoxymethano) PGH2 (2×10^-9, 1×10^-8, 5×10^-8 and 2.5×10^-7 M) are obtained. In a second experiment the individual compounds are added 30 minutes previously to the addition of the series of agonist doses. Affinity constants are calculated as above.
# as §1
# α-adrenoceptors = experiment: Rabbit aorta strip: block of the contractile action of noradrenaline; format: cell-based
# [3] = tested on: platelets, archidonic acid; experiment: Platelets: block of the aggregatory action of arachidonic acid; format: cell-based, human; details: converted to TXA2 by the platelet enzyme system
Structure (SMILES),Kb [1],Kb [2],other results
O=C(O)CCC/C=C\C[C@@H]1[C@@H](C=NOCCOc2ccc(Cl)cc2)[C@@H]2C=C[C@H]1C2 (relative stereo),10 µM,,"Rabbit Aorta, affinity constant not given [2]: (2)"
O=C(O)CCC/C=C\C[C@H]1[C@H]2CC[C@H](C2)[C@@H]1C=NOCc1ccc(Cl)cc1Cl (relative stereo),3.57 µM,0.238 µM,
"O=C(O)CCC/C=C\C[C@@H]1[C@@H](C=NOCc2ccc(F)cc2)[C@@H]2C=C[C@H]1C2 (relative stereo) [Example 1, 5-endo-(6'-Carboxyhex-2'-Z-enyl)-6-exo-(O-p-fluorobenzyloxyiminomethyl)-bicyclo[2,2,1]hept-2Z-ene]",,,"activity in the platelet test (in words) ([1]; 11,9-(epoxymethano) PGH2, human platelets in vitro): antagonists in the platelet test; block of contractile action of noradrenaline (in words) (α-adrenoceptors): do not block the contractile action of noradrenaline; block of aggregatory action of archidonic acid (in words) [3]: block the aggregatory action of archidonic acid; activity in the rabbit aorta strip test (in words) ([2]; 11,9-(epoxymethano) PGH2, rabbit aorta strip): pure antagonists in the rabbit aorta strip test"
O=C(O)CCC/C=C\C[C@H]1[C@H]2CC[C@H](C2)[C@@H]1C=NOC(c1ccccc1)c1ccccc1 (relative stereo),0.0208 µM,5.26 µM,
O=C(O)CCC/C=C\C[C@H]1[C@H]2CC[C@H](C2)[C@@H]1C=NOCc1cccc(C(F)(F)F)c1 (relative stereo),,,"Rabbit Aorta, affinity constant not given [2]: (2)"
O=C(O)CCC/C=C\C[C@@H]1[C@@H](C=NOCCOc2ccc(F)cc2)[C@@H]2C=C[C@H]1C2 (relative stereo),25 µM,,"Rabbit Aorta, affinity constant not given [2]: (2)"
O=C(O)CCC/C=C\C[C@@H]1[C@@H](C=NOCc2ccc(F)cc2)[C@@H]2C=C[C@H]1C2 (relative stereo) [drawing 29],2.5 µM,0.278 µM,
O=C(O)CCC/C=C\C[C@@H]1[C@@H](C=NOCCOc2ccccc2)[C@@H]2C=C[C@H]1C2 (relative stereo),20 µM,0.4 µM,
O=C(O)CCC/C=C\C[C@@H]1[C@@H](C=NOCc2ccccc2)[C@@H]2C=C[C@H]1C2 (relative stereo),5.26 µM,0.667 µM,
O=C(O)CCC/C=C\C[C@@H]1[C@@H](C=NOC(c2ccccc2)c2ccccc2)[C@@H]2C=C[C@H]1C2 (relative stereo),0.0196 µM,1.69 µM,
O=C(O)CCC/C=C\C[C@@H]1[C@@H](C=NOCc2ccc(Cl)cc2)[C@@H]2C=C[C@H]1C2 (relative stereo),4.76 µM,0.149 µM,
O=C(O)CCC/C=C\C[C@H]1[C@H]2CC[C@H](C2)[C@@H]1C=NOCc1ccc(F)cc1 (relative stereo),1.72 µM,0.435 µM,
CCCCCON=C[C@H]1[C@@H]2CC[C@@H](C2)[C@@H]1C/C=C\CCCC(=O)O (relative stereo) [(CH2)4 CH3],5.88 µM,6.67 µM,
O=C(O)CCC/C=C\C[C@H]1[C@H]2CC[C@H](C2)[C@@H]1C=NOCc1cccc(Cl)c1 (relative stereo),1.69 µM,,"Rabbit Aorta, affinity constant not given [2]: (2)"
O=C(O)CCCCCC[C@H]1[C@H]2CC[C@H](C2)[C@@H]1C=NOCc1ccc(F)cc1 (relative stereo),12 µM,,
